Reference: ChEMBL document CHEMBL4602710 (ACS Med Chem Lett, 2020)
≈ marks a conversion by molar mass, not a printed value.

How the values were obtained:
[1] = Clearance in human liver microsomes; assay type: ADME, Microsome
[2] = Solubility of compound at pH 2; assay type: physicochemical; conditions: buffer
[3] = Distribution coefficient, logD of compound; assay type: physicochemical; conditions: octanol/water
[4] = target: T1, Tyrosine-protein kinase SYK (Homo sapiens, UniProt P43405); test: Inhibition of SYK (unknown origin) using XL665-labeled peptide as substrate in presence of ATP measured after 30 mins by TR-FRET assay
[5] = target: T1, Tyrosine-protein kinase SYK; test: Inhibition of SYK in human Ramos cells assessed as reduction in antihuman IgM F(ab)2-induced phosphorylation of BLNK at Y96 residue preincubated for 1 hr followed by antihuman IgM F(ab)2 stimulation for 5 mins by MSD high bind plate assay; assay type: cell-based
[6] = Solubility of compound at pH 7.4; assay type: physicochemical; conditions: buffer
[7] = target: T1, Tyrosine-protein kinase SYK; test: Inhibition of SYK in human whole blood assessed as reduction in anti-FCepsilonR1 mAb-induced basophil activation by measuring decrease in CD63 surface expression incubated for 60 mins followed by anti-FCepsilonR1 mAb stimulation for 20 mins by flow cytometry analysis; assay type: tissue-based
[8] = Apparent permeability of compound in human Caco2 cells; assay type: ADME, cell-based; conditions: Caco-2
[9] = Efflux ratio of apparent permeability of compound in human Caco2 cells; assay type: ADME, cell-based; conditions: Caco-2

Structure (SMILES) | CLhep predicted [1] | solubility [2] | logD [3] | IC50 [4] | EC50 [5] | solubility [6] | EC50 [7] | Papp [8] | efflux ratio [9]
CCN1CCN(c2ccc(Nc3nc(-c4ccc5cn[nH]c5c4)cn4ccnc34)cc2)CC1 | 3.33 mL/min/kg | > 100 µM | 1.9 to 2.7 | 0.8 nM | 36 nM | 10 µM (≈ 4.39 µg/mL) | 456 nM | – | –
c1cn2cc(-c3cnc4nc[nH]c4c3)nc(Nc3ccc(N4CCN(C5COC5)CC4)cc3)c2n1 | 3 mL/min/kg | > 100 µM | – | 13.4 nM | 286 nM | < 1 µM | 309 nM | 2.7 ×10⁻⁶ cm/s | 5.8
C[C@@H]1CN(c2ccc(Nc3nc(-c4ccc5cn[nH]c5c4)cn4ccnc34)cc2)C[C@H](C)O1 | 2.5 mL/min/kg | 86 µM (≈ 37.8 µg/mL) | 1.9 to 2.7 | 4.9 nM | 45 nM | < 1 µM | 885 nM | – | –
c1cn2cc(-c3ccc4cn[nH]c4c3)nc(Nc3ccc(N4C[C@@H]5C[C@H]4CO5)cc3)c2n1 | 11 mL/min/kg | 79 µM (≈ 33.5 µg/mL) | 1.9 to 2.7 | 5 nM | 113 nM | < 1 µM | 1500 nM | – | –

The remaining molecules from weak to strong by IC50 [4], led by results:

CLhep predicted [1] | solubility [2] | logD [3] | IC50 [4] | EC50 [5] | solubility [6] | EC50 [7] | Papp [8] | efflux ratio [9] | Structure (SMILES)
5.33 mL/min/kg | 25 µM (≈ 10.6 µg/mL) | 1.9 to 2.7 | 61.6 nM | 68 nM | 2 µM (≈ 0.847 µg/mL) | 824 nM | – | – | c1cn2cc(-c3ccc4cn[nH]c4c3)nc(Nc3ccc(N4CC5CC(C4)O5)cc3)c2n1
12.5 mL/min/kg | 78 µM (≈ 31 µg/mL) | 1.9 to 2.7 | 11.3 nM | 57 nM | 4 µM (≈ 1.59 µg/mL) | 723 nM | – | – | OC1CN(c2ccc(Nc3nc(-c4ccc5cn[nH]c5c4)cn4ccnc34)cc2)C1
4.5 mL/min/kg | 24 µM (≈ 10.5 µg/mL) | 1.9 to 2.7 | 9.6 nM | 187 nM | < 1 µM | 2210 nM | – | – | c1cn2cc(-c3ccc4cn[nH]c4c3)nc(Nc3ccc(N4CC5COCC5C4)cc3)c2n1 (stereo unspecified)
9.5 mL/min/kg | 24 µM (≈ 10.5 µg/mL) | 1.9 to 2.7 | 5.3 nM | 162 nM | < 1 µM | 2330 nM | – | – | c1cn2cc(-c3ccc4cn[nH]c4c3)nc(Nc3ccc(N4C[C@H]5CC[C@@H](C4)O5)cc3)c2n1
4.33 mL/min/kg | 87 µM (≈ 38.4 µg/mL) | 1.9 to 2.7 | 1.1 nM | 29 nM | 1.2 µM (≈ 0.53 µg/mL) | 501 nM | – | – | OC[C@H]1CN(c2ccc(Nc3nc(-c4ccc5cn[nH]c5c4)cn4ccnc34)cc2)CCO1
8.67 mL/min/kg | > 100 µM | 1.9 to 2.7 | 0.9 nM | 23 nM | < 1 µM | 267 nM | – | – | COCCN1CCN(c2ccc(Nc3nc(-c4ccc5cn[nH]c5c4)cn4ccnc34)cc2)CC1
